Values of other authors as cited in patent US10849867B2, “Methods and compositions for treating conditions associated with an abnormal inflammatory response” (First Wave Bio, Inc., priority 2015, dated 2020).

Conditions: at 20° C.; cited from earlier work

Structure (SMILES): NCCO.O=C(Nc1ccc([N+](=O)[O-])cc1Cl)c1cc(Cl)ccc1O [ethanol amine salt, 5-chloro-N-(2-chloro-4-nitrophenyl)-2-hydroxybenzamide with 2-aminoethanol (1.1)]
- dissolves in distilled water: 180 to 280 mg/L
